Measured values published in ChEMBL document CHEMBL6078691, “Modulating Phosphorylation by Proximity-Inducing Modalities for Cancer Therapy” (J Med Chem, 2024).

Assays:
[1] = target: Microtubule-associated protein tau (Homo sapiens, UniProt P10636); assay: Inhibition of tau phosphorylation (unknown origin)
[2] = target: T1, Epidermal growth factor receptor (Homo sapiens, UniProt P00533); assay: Inhibition of EGFR (unknown origin)
[3] = target: T1, Epidermal growth factor receptor; assay: Inhibition of EGFR (unknown origin) at 0.5 uM relative to control

T1 sequence (P00533 whole entry): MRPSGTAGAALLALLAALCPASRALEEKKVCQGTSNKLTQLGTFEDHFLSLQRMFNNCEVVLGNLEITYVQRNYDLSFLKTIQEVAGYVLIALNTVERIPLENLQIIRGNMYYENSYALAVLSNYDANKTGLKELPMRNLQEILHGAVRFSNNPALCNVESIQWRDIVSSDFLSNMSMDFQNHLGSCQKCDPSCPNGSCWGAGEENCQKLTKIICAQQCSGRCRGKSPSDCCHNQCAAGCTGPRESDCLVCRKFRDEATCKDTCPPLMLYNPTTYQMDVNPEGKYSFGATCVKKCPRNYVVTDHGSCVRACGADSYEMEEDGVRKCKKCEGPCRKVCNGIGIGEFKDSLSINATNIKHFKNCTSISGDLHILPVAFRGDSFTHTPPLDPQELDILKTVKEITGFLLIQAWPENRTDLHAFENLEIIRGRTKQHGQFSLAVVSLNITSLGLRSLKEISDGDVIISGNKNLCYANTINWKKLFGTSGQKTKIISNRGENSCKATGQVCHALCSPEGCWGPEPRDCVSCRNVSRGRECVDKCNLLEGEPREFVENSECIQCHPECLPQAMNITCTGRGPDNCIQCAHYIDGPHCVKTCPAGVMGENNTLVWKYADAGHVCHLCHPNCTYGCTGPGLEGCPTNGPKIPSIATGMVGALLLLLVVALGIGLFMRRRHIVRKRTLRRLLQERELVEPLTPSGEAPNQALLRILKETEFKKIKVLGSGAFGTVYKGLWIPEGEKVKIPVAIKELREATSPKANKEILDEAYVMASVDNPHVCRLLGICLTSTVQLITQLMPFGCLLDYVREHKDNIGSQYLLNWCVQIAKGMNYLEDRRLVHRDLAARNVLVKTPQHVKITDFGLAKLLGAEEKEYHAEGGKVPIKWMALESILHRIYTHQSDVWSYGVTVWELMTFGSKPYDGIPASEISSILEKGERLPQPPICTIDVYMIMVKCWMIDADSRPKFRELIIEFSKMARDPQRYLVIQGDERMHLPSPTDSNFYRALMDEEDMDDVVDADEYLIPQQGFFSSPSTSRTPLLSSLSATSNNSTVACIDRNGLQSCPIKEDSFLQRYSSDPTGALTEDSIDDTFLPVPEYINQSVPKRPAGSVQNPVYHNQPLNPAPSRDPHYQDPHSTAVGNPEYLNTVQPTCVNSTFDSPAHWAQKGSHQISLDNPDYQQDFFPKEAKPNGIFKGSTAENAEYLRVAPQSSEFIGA
Sequence of Microtubule-associated protein tau (P10636 whole entry): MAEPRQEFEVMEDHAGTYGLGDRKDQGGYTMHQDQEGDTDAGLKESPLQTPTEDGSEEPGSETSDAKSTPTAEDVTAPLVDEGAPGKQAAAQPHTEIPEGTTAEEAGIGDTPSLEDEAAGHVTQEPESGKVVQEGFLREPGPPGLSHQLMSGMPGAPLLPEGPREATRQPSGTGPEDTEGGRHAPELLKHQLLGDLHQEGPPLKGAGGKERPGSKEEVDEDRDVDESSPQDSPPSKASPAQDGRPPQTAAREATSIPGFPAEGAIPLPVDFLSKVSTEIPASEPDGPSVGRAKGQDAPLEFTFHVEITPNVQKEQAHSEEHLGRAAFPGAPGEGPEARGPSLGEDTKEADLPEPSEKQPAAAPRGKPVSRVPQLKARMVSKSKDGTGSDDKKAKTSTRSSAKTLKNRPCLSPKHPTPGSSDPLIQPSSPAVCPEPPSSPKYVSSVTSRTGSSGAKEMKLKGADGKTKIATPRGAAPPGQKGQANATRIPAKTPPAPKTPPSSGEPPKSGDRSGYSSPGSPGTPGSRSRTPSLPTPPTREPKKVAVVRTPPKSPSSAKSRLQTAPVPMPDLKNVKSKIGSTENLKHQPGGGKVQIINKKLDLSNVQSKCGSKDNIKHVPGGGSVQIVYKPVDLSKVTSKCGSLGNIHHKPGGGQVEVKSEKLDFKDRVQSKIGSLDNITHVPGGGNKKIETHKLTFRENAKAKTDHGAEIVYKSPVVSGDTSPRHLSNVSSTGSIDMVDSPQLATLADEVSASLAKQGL

IC50 [1] [nM] | Molecule | other results
> 20000 | H-YQQYQDATADEQGGSGSKKVAVVRTPPKSPRRRRRRRR-OH | 
2000 | CC[C@H](C)[C@H](NC(=O)[C@H](CCSC)NC(=O)[C@H](Cc1c[nH]c2ccccc12)NC(=O)[C@@H](NC(=O)[C@@H](N)CC(=O)O)C(C)C)C(=O)N[C@@H](CC(N)=O)C(=O)N[C@@H](CCCCN)C(=O)N[C@@H](CCCCN)C(=O)N[C@@H](CCCNC(=N)N)C(=O)N[C@@H](CCCCN)C(=O)NCCOCCOCCOCCOCCOCCOCCN[C@@H](CCCNC(=N)N)C(=O)N[C@H](C(=O)N1CCC[C@H]1C(=O)N1CCC[C@H]1C(=O)N[C@@H](CCCCN)C(=O)N[C@@H](CO)C(=O)N1CCC[C@H]1C(=O)N[C@@H](CCCNC(=N)N)C(=O)N[C@@H](CCCNC(=N)N)C(=O)N[C@@H](CCCNC(=N)N)C(=O)N[C@@H](CCCNC(=N)N)C(=O)N[C@@H](CCCNC(=N)N)C(=O)N[C@@H](CCCNC(=N)N)C(=O)N[C@@H](CCCNC(=N)N)C(=O)N[C@@H](CCCNC(=N)N)C(=O)O)[C@@H](C)O | 
 | CC[C@H](C(=O)N1CCCC[C@@H]1C(=O)O[C@H](CCc1ccc(OC)c(OC)c1)c1cccc(OCC(=O)NCCC(=O)N2CCN(CCCOc3cc4c(Nc5ccc(F)c(Cl)c5)ncnc4cc3OC)CC2)c1)c1cc(OC)c(OC)c(OC)c1 | IC50 [2]: 13 nM
 | CC[C@H](C(=O)N1CCCC[C@@H]1C(=O)O[C@H](CCc1ccc(OC)c(OC)c1)c1cccc(OCC(=O)NCCOCCOCCN(C)C/C=C/C(=O)Nc2cc3c(Nc4ccc(F)c(Cl)c4)ncnc3cc2OC)c1)c1cc(OC)c(OC)c(OC)c1 | inhibition [3]: 90%
